This note sets out measurements from patent US5430042A, “Dialkoxy-pyridinyl-benzimidazole derivatives, process for their preparation and their pharmaceutical use” (priority 1990, dated 1995).

The structures appear in SMILES notation.

Data set [1] relates to uptake of ^125 I in the thyroid gland. The data set can be described thus: Effect on the Accumulation of ^125 I in the Thyroid Gland. Format: in vivo, rat (Sprague-Dawley). The note with it: oral gavage, male rat, 4 h after ^125 I. How it is done: The effect of a compound within the invention of the formula I on the uptake of iodine into the thyroid gland is measured as an effect on the accumulation of ^125 I in the thyroid gland.
The accumulation of ^125 I in the thyroid gland was studied in male, Sprague-Dawley rats which were deprived of food for 24 hours before the test. The experimental protocol of Searle, C. E. et al. (Biochem J 1950, 47:77-81) was followed.
Test substances suspended in 0.5% buffered (pH 9) methocel, were administered by oral gavage in a volume of 5 ml/kg body weight. After 1 hour, ^125 I (300 kBqkg, 3 ml/kg) was administered by intraperitoneal injection. Four hours after ^125 I-administration, the animals were killed by CO2 -asphyxiation and bled. The thyroid gland together with a piece of the trachea was dissected out and placed in a small test tube for the assay of radioactivity in a gamma counter (LKB-Wallac model 1282 Compugamma). Percentage inhibition was calculated according to the formula 100 (1-T/P), where T and P is the mean radioactivety of thyroid glands from animals treated with test agent and placebo (buffered methocel), respectively. The statistical significane for a difference between test agent- and placebo-treated animals was assessed with the Mann-Whitney U-test (two-tailed). P<0.05 was accepted as significant.

The nature of data set [2]: Chemical Stability at pH 7 in aqueous buffer. Type of data set: physicochemical. Particulars: pH 7, 37° C., low concentration, read-out: Chemical stability at pH 7 half-life (t 1/2). As to the method:
The chemical stability of a compound of the invention is followed kinetically at low cencentration at 37° C. in aqueous buffer solution at different pH values. The results in Table 4 show the half life (t 1/2) at pH 7, that is the time period after which half the amount of the original compound remains unchanged.

Data set [3] has as its system gastric acid secretion. Description: Inhibition of Gastric Acid Secretion in the Conscious Female Rat, iv. Type of data set: in vivo, rat (Sprague-Dawley). As to the method:
(§1) The potency for inhibition of acid secretion is measured in the dog, intravenously (iv) and in the female rat, intravenously (iv).
Female rats of the Sprague-Dawley strain are used. They are equipped with cannulated fistulae in the stomach (lumen) for collection of gastric secretions. A fourteen days recovery period after surgery is allowed before testing is commenced.
Before secretory tests, the animals are deprived of food but not water for 20 h. The stomach is repeatedly washed through the gastric cannula, and 6 ml of Ringer-Glucose given s.c. Acid secretion is stimulated with infusion during 3.5 h (1.2 ml/h, s.c.) of pentagastrin and carbachol (20 and 110 nmol/kg h, respectively), during which time gastric secretions are collected in 30-min fractions. Test substances or vehicle are given iv at 90 min after starting the stimulation, in a volume of 1 ml/kg. Gastric juice samples are titrated to pH 7.0 with NaOH, 0.1 mol/L, and acid output is calculated as the product of titrant volume and concentration. Further calculations are based on group mean responses from 4-7 rats. The acid output during the periods after administration of test substances or vehicle are expressed as fractional responses, setting the acid output in the 30-min period preceding administration to 1.0. Percentage inhibition is calculated from the fractional responses elicited by test compound and vehicle. […]

Data set [4] deals with gastric acid secretion. The data set can be described thus: Inhibition of Gastric Acid Secretion in the Conscious Dog, iv. Format: in vivo, dog (Harrier). The note with it: Canis lupus familiaris, histamine-stimulated, acid output 2 h after dosing, read-out: Inhibition of acid secretion iv administration ED50, Dog. As to the method: as §1
Harrier dogs of either sex were used. They were equipped with a duodenal fistula for the administration of test compounds or vehicle and a Heidenhain-pouch for the collection of gastric secretions.
Before secretory tests the animals were fasted for about 18 h but water was freely allowed. Gastric acid secretion was stimulated by a 4 h infusion of histamine dihydrochloride (12 ml/h) at a dose producing about 80% of the individual maximal secretory response, and gastric juice collected in consecutive 30-min fractions. Test substance or vehicle was given iv 1 h after starting the histamine infusion, in a volume of 0.5 ml/kg body weight. The acidity of the gastric juice samples were determined by titration to pH 7.0, and the acid output calculated. The acid output in the collection periods after administration of test substance or vehicle were expressed as fractional responses, setting the acid output in the fraction preceding administration to 1.0. Percentage inhibition was calculated from fractional responses elicited by test compound and vehicle. ED50 -values were obtained by graphical interpolation on log dose--response curves, or estimated from single-dose experiments under the assumption of the same slope of the dose-response curve for all test compounds. […]

Data set [5] is described as follows: Bioavailability in the Male Rat (id vs iv AUC). The note with it: blood, 4 umol/kg, intraduodenal vs iv, 4 μmol/kg, read-out: Bioavailability F %, Rat. Format: in vivo, rat (Sprague-Dawley). How it is done: Biovailability is assessed by calculating the quotient between the area under plasma concentration (AUC) curve following intreduodenal (id) administration and intravenous (iv) administration from the rat.
Male adult rats of the Sprague-Dawley strain were used. One day, prior to the experiments, all rats were prepared by cannulation of the left carotid artery under anaesthesia. The rats used for the intravenous experiments, were also cannulated in the jugular vein. (Ref. V. Popovic and P. Popovic, J Appl Physiol 1960;15,727-728). The rats used for the intraduodenal experiments, were also cannulated in the upper part of the duodenum. The cannulas were exteriorized at the nape of the neck. The rats were housed individually after surgery and were deprived of food, but not water, before administration of the test substances. The same dose (4 μmol/kg) were given iv and id as a bolus for about one minute (2 ml/kg).
Blood samples (0.1-0.4 g) were drawn repeatedly from the carotid artery at intervals up to 4 hours after given dose. […]
The area under the blood concentration vs time curve, AUC, was determined by the linear trapezoidal rule and extrapolated to infinity by dividing the last determined blood concentration by the elimination rate constant in the terminal phase.
The systemic bioavailability (F %) following intraduodenal administration was calculated as [formula]

For the compound `CCOC(=O)c1ccc2[nH]c([S+]([O-])Cc3nccc(OC)c3OC)nc2c1` (centres unmarked) [Example 5, 5-Carbethoxy-2-[[(3,4-dimethoxy-2pyridinyl)methyl]sulfinyl]-1H-benzimidazole], the “Percent inhibition of 400 μmol/kg on the uptake of ^125 I in the thyroid gland” value (shortened to “Percent inhibition of 400 μmol/kg”) in data set [1] is listed as -6%. Also, the half-life in data set [2] turned out to be 4.5 h.

For the compound `CC(=O)c1cc2nc([S+]([O-])Cc3nccc4c3OCCO4)[nH]c2cc1C` (centres unmarked) [Example 2, 5-Acetyl-6-methyl-2-[[(3,4-ethylendioxy-2-pyridinyl)methyl]sulfinyl]-1H-benzimidazole], the “inhibition of acid secretion, Rat” value in the data set with gastric acid secretion [3] (1 μmol/kg iv) was 14%.

Turning to `COc1ccnc(C[S+]([O-])c2nc3cc(C(C)=O)c(C)cc3[nH]2)c1OC` (centres unmarked) [Example 4, 5-Acetyl-6-methyl-2-[[(3,4-dimethoxy-2-pyridinyl)methyl]sulfinyl]-1H-benzimidazole], the ED50 turned out to be 0.74 µmol/kg in the data set with gastric acid secretion [4]; 0.9 µmol/kg with gastric acid secretion [3] (2 h, iv, pentagastrin and carbachol stimulated, second hour after drug, read-out: Inhibition of acid secretion iv administration ED50, Rat). Moreover, in data set [5], the bioavailability is more than 100%. Also, in data set [1], the “Percent inhibition of 400 μmol/kg” value is recorded as -7%. For the same compound, the half-life in data set [2] is 7.83 h.

For the compound `COC(=O)c1cc2nc([S+]([O-])Cc3nccc(OC)c3OC)[nH]c2cc1C` (centres unmarked) [Example 3, 5-Carbomethoxy-6-methyl-2-[[(3,4-dimethoxy-2-pyridinyl)methyl]sulfinyl]-1H-benzimidazole], the ED50 in the data set with gastric acid secretion [4] came to 0.5 µmol/kg. In addition, in data set [1], the “Percent inhibition of 400 μmol/kg” value came to 0%. In addition, the half-life in data set [2] was 8 h.
